For orientation: EC50 means the concentration giving half of the maximal effect.

T1 sequence (Q14833 33-912): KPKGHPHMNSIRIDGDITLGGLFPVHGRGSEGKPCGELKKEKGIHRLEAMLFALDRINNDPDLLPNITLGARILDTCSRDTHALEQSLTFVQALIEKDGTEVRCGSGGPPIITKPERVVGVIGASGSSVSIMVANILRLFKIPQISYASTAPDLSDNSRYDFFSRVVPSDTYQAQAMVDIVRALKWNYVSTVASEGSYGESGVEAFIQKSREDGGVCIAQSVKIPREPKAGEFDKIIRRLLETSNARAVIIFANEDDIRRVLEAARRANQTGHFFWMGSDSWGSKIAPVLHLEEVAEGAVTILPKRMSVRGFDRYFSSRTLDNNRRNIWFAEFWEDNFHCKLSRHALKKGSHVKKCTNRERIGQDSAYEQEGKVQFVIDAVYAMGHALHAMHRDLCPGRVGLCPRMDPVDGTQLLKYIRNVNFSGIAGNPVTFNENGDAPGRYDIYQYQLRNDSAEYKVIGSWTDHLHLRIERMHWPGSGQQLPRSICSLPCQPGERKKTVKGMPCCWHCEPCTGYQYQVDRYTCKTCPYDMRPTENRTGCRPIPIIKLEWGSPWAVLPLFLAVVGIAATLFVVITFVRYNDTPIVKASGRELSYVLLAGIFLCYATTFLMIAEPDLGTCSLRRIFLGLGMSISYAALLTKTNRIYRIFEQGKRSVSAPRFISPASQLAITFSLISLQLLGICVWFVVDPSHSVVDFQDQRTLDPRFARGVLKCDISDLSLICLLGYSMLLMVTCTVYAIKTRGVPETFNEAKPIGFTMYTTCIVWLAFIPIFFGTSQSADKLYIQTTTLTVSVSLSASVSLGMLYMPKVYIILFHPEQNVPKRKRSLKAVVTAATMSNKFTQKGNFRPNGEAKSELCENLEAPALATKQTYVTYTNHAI

The assay addresses T1, human mGlu4 receptor (Homo sapiens, UniProt Q14833).
T1 construct: expressed in transfected cells; host or cells: HEK-293 (monoclonal, stably transfected)
The assay can be described thus: Ca2+ mobilization in vitro assay on recombinant human mGlu4 expressed in HEK293 cells. The format is cell-based. The conditions noted are these: HEK-293 cells stably expressing human mGlu4; L-AP4 added at EC20; Fluo-4 fluorescence; read-out: EC50 (uM) mGlu4 PAM. As for the experimental part: Determination of EC50 Values Using a Ca2+ Mobilization In Vitro Assay on Recombinant Human mGlu4 Expressed in HEK293 Cells:
A monoclonal HEK-293 cell line stably transfected with a cDNA encoding for the human mGlu4 receptor was generated; for the work with mGlu4 Positive Allosteric Modulators (PAMs), a cell line with low receptor expression levels and low constitutive receptor activity was selected to allow the differentiation of agonistic versus PAM activity. Cells were cultured according to standard protocols (Freshney, 2000) in Dulbecco's Modified Eagle Medium with high glucose supplemented with 1 mM glutamine, 10% (vol/vol) heat-inactivated bovine calf serum, Penicillin/Streptomycin, 50 μg/ml hygromycin and 15 μg/ml blasticidin (all cell culture reagents and antibiotics from Invitrogen, Basel, Switzerland).
About 24 hrs before an experiment, 5×10^4 cells/well were seeded in poly-D-lysine coated, black/clear-bottomed 96-well plates. The cells were loaded with 2.5 μM Fluo-4 AM in loading buffer (1×HBSS, 20 mM HEPES) for 1 hr at 37° C. and washed five times with loading buffer. The cells were transferred into a Functional Drug Screening System 7000 (Hamamatsu, Paris, France), and 11 half logarithmic serial dilutions of test compound at 37° C. were added and the cells were incubated for 10-30 min. with on-line recording of fluorescence. Following this pre-incubation step, the agonist (2S)-2-amino-4-phosphonobutanoic acid (L-AP4) was added to the cells at a concentration corresponding to EC20 with on-line recording of fluorescence; in order to account for day-to-day variations in the responsiveness of cells, the EC20 of L-AP4 was determined immediately ahead of each experiment by recording of a full dose-response curve of L-AP4.
Responses were measured as peak increase in fluorescence minus basal (i.e. fluorescence without addition of L-AP4), normalized to the maximal stimulatory effect obtained with saturating concentrations of L-AP4. Graphs were plotted with the % maximal stimulatory using XLfit, a curve fitting program that iteratively plots the data using Levenburg Marquardt algorithm. The single site competition analysis equation used was y=A+((B−A)/(1+((x/C)D))), where y is the % maximal stimulatory effect, A is the minimum y, B is the maximum y, C is the EC50, x is the log 10 of the concentration of the competing compound and D is the slope of the curve (the Hill Coefficient). From these curves the EC50 (drug concentration at which 50% of the maximal receptor activation was achieved), the Hill coefficient as well as the maximal response in % of the maximal stimulatory effect obtained with saturating concentrations of L-AP4 were calculated (see Fig. 1).
A depression of the signal observed after addition of the EC20 concentration of L-AP4 was indicative of an inhibitory activity of the test compound.
`Cn1cc(-c2cnc3n2C2(CC2)C(=O)N3c2c(F)cc(C#Cc3cccnc3)cc2F)cn1` [Example 37, 1′-(2,6-difluoro-4-(pyridin-3-ylethynyl)phenyl)-5′-(1-methyl-1H-pyrazol-4-yl)spiro[cyclopropane-1,3′-imidazo[1,2-a]imidazol]-2′(1′H)-one]: the EC50 worked out at 0.229 µM.
The value for `O=C1N(c2c(F)cc(-n3cc(C(F)(F)F)cn3)cc2F)c2ncc(-c3ccccn3)n2C12CC2` [Example 21, 7′-[2,6-difluoro-4-[4-(trifluoromethyl)pyrazol-1-yl]phenyl]-3′-(2-pyridyl)spiro[cyclopropane-1,5′-imidazo[1,2-a]imidazole]-6′-one] was 0.596 µM; that for `O=C1N(c2c(F)cc(C#Cc3ccccc3)cc2F)c2ncc(-c3cncnc3)n2C12CC2` [Example 38, 3-[2,6-Difluoro-4-(2-phenylethynyl)phenyl]-6-(pyrimidin-5-yl)-2,3-dihydrospiro[[1,3]diazolo[1,2-a]imidazole-1,1′-cyclopropane]-2-one] was 0.331 µM.
Turning to `CC(C)(C)c1cnn(-c2cc(F)c(N3C(=O)C4(CC4)n4c(-c5ccncn5)cnc43)c(F)c2)c1` [Example 15, 7′-[4-(4-tert-butylpyrazol-1-yl)-2,6-difluoro-phenyl]-3′-pyrimidin-4-yl-spiro[cyclopropane-1,5′-imidazo[1,2-a]imidazole]-6′-one], the EC50 amounted to 0.232 µM.
For `O=C1N(c2c(F)cc(C#Cc3ccccc3)cc2F)c2ncc(-c3cccnc3)n2C12CC2` [Example 33, 3-[2,6-Difluoro-4-(2-phenylethynyl)phenyl]-6-(pyridin-3-yl)-2,3-dihydrospiro[[1,3]diazolo[1,2-a]imidazole-1,1′-cyclopropane]-2-one] the value was 0.178 µM.
As to “7′-[2,6-difluoro-4-[2-(3-pyridyl)ethynyl]phenyl]-3′-(2-methylpyrazol-3-yl)spiro[cyclopropane-1,5′-imidazo[1,2-a]imidazole]-6′-one [Example 30]”, the EC50 was 0.143 µM.
`O=C1N(c2c(F)cc(C#Cc3ccccc3)cc2F)c2ncc(-c3ccncc3)n2C12CC2` [Example 32, 3-[2,6-Difluoro-4-(2-phenylethynyl)phenyl]-6-(pyridin-4-yl)-2,3-dihydrospiro[[1,3]diazolo[1,2-a]imidazole-1,1′-cyclopropane]-2-one]: the EC50 turned out to be 0.156 µM.
For the molecule `O=C1N(c2c(F)cc(C#Cc3ccccc3)cc2F)c2ncc(-c3ccccc3)n2C12CC2` [Example 24, 3-[2,6-Difluoro-4-(2-phenylethynyl)phenyl]-6-phenyl-2,3-dihydrospiro[[1,3]diazolo[1,2-a]imidazole-1,1′-cyclopropane]-2-one], the EC50 worked out at 0.073 µM.
Consider `O=C1N(c2c(F)cc(-n3cc(C(F)(F)F)cn3)cc2F)c2ncc(-c3ccncn3)n2C12CC2` [Example 23, 7′-[2,6-difluoro-4-[4-(trifluoromethyl)pyrazol-1-yl]phenyl]-3′-pyrimidin-4-yl-spiro[cyclopropane-1,5′-imidazo[1,2-a]imidazole]-6′-one], for which the EC50 turned out to be 0.755 µM.
Turning to `CC1(C)C(=O)N(c2c(F)cc(C#Cc3ccccc3)cc2Cl)c2ncc(I)n21` [Example 10, 1-(2-chloro-6-fluoro-4-(phenylethynyl)phenyl)-5-iodo-3,3-dimethyl-1H-imidazo[1,2-a]imidazol-2(3H)-one], the EC50 came to 0.371 µM.
As to `Cn1nccc1-c1cnc2n1C1(CC1)C(=O)N2c1c(F)cc(C#Cc2cccnc2)cc1F` [Example 46, 7′-[2,6-difluoro-4-[2-(3-pyridyl)ethynyl]phenyl]-3′-(2-methylpyrazol-3-yl)spiro[cyclopropane-1,5′-imidazo[1,2-a]imidazole]-6′-one], the EC50 was 0.673 µM.
On to `CS(=O)(=O)c1cnc2n1C1(CC1)C(=O)N2c1c(F)cc(C#Cc2ccccc2)cc1F` [Example 53, 3′-[2,6-Difluoro-4-(2-phenylethynyl)phenyl]-6′-methanesulfonyl-2′,3′-dihydrospiro[cyclopropane-1,1′-imidazo[1,2-a][1,3]diazole]-2′-one], for which the EC50 is 0.69 µM.
For the molecule `O=C1N(c2c(F)cc(N3CCN(CC(F)(F)F)CC3)cc2F)c2ncc(-c3cc[nH]n3)n2C12CC2` [Example 42, 7′-[2,6-difluoro-4-[4-(2,2,2-trifluoroethyl)piperazin-1-yl]phenyl]-3′-(1H-pyrazol-3-yl)spiro[cyclopropane-1,5′-imidazo[1,2-a]imidazole]-6′-one], the EC50 was 0.417 µM.
With `CC(O)c1cnc2n1C1(CC1)C(=O)N2c1c(F)cc(C#Cc2ccccc2)cc1F` (stereo not shown) [Example 59, 7′-[2,6-difluoro-4-(2-phenylethynyl)phenyl]-3′-(1-hydroxyethyl)spiro[cyclopropane-1,5′-imidazo[1,2-a]imidazole]-6′-one], the EC50 came out at 0.824 µM.
For the molecule `Cn1cc(-c2cnc3n2C2(CC2)C(=O)N3c2c(F)cc(C#Cc3ccccc3)cc2F)cn1` [Example 29, 3-[2,6-Difluoro-4-(2-phenylethynyl)phenyl]-6-(1-methyl-1H-pyrazol-4-yl)-2,3-dihydrospiro[[1,3]diazolo[1,2-a]imidazole-1,1′-cyclopropane]-2-one], the EC50 came out at 0.139 µM.
For `O=C1N(c2c(F)cc(C#Cc3cccnc3)cc2F)c2ncc(-c3cc[nH]n3)n2C12CC2` [Example 28, 7′-[2,6-difluoro-4-[2-(3-pyridyl)ethynyl]phenyl]-3′-(1H-pyrazol-3-yl)spiro[cyclopropane-1,5′-imidazo[1,2-a]imidazole]-6′-one] the value was 0.135 µM; for `CC1(C)C(=O)N(c2c(F)cc(C#Cc3ccccc3)cc2Cl)c2nccn21` [Example 2, 1-(2-chloro-6-fluoro-4-(phenylethynyl)phenyl)-3,3-dimethyl-1H-imidazo[1,2-a]imidazol-2(3H)-one], 0.359 µM.
For `CC1C(=O)N(c2c(F)cc(C#Cc3ccccc3)cc2F)c2nccn21` (single isomer, unassigned; enantiomer 2) [Example 4, 1-(2,6-difluoro-4-(phenylethynyl)phenyl)-3-methyl-1H-imidazo[1,2-a]imidazol-2(3H)-one (enantiomer 2)] the value was 0.758 µM.
The value for `CC1(C)C(=O)N(c2c(F)cc(C#Cc3ccccc3)cc2F)c2ncc(I)n21` [Example 8, 1-(2,6-difluoro-4-(phenylethynyl)phenyl)-5-iodo-3,3-dimethyl-1H-imidazo[1,2-a]imidazol-2(3H)-one] was 0.418 µM; that for `Cn1cc(-c2cnc3n2C2(CC2)C(=O)N3c2c(F)cc(-c3ccc(C(C)(F)F)cc3)cc2F)cn1` [Example 35, 1′-(4′-(1,1-difluoroethyl)-3,5-difluoro-[1,1′-biphenyl]-4-yl)-5′-(1-methyl-1H-pyrazol-4-yl)spiro[cyclopropane-1,3′-imidazo[1,2-a]imidazol]-2′(1′H)-one] was 0.227 µM.
With `Cn1ccc(-c2cnc3n2C2(CC2)C(=O)N3c2c(F)cc(C#Cc3ccccc3)cc2F)n1` [Example 26, 1′-(2,6-difluoro-4-(phenylethynyl)phenyl)-5′-(1-methyl-1H-pyrazol-3-yl)spiro[cyclopropane-1,3′-imidazo[1,2-a]imidazol]-2′(1′H)-one], the EC50 is 0.104 µM.
For `Cn1cnc(-c2cnc3n2C2(CC2)C(=O)N3c2c(F)cc(C#Cc3ccccc3)cc2F)c1` [Example 14, 7′-[2,6-difluoro-4-(2-phenylethynyl)phenyl]-3′-(1-methylimidazol-4-yl)spiro[cyclopropane-1,5′-imidazo[1,2-a]imidazole]-6′-one] the value was 0.12 µM.
`CC1C(=O)N(c2c(F)cc(C#Cc3ccccc3)cc2F)c2nccn21` (single isomer, unassigned; enantiomer 1) [Example 3, 1-(2,6-difluoro-4-(phenylethynyl)phenyl)-3-methyl-1H-imidazo[1,2-a]imidazol-2(3H)-one (enantiomer 1)]: the EC50 amounted to 0.453 µM.
Turning to `O=C1N(c2c(F)cc(C#Cc3ccccc3)cc2F)c2ncc(-c3ccccn3)n2C12CC2` [Example 12, 3-[2,6-Difluoro-4-(2-phenylethynyl)phenyl]-6-(pyridin-2-yl)-2,3-dihydrospiro[[1,3]diazolo[1,2-a]imidazole-1,1′-cyclopropane]-2-one], the EC50 is 0.076 µM.
The value for `Cn1cc(-c2cnc3n2C(C)(C)C(=O)N3c2c(F)cc(C#Cc3ccccc3)cc2Cl)cn1` [Example 34, 1-(2-chloro-6-fluoro-4-(phenylethynyl)phenyl)-3,3-dimethyl-5-(1-methyl-1H-pyrazol-4-yl)-1H-imidazo[1,2-a]imidazol-2(3H)-one] was 0.195 µM.

For the origin of these results see patent US11345708B2, “Substituted imidazo[1,2-a]imidazoles as modulators of metabotropic glutamate receptor 4 activity” (Hoffmann-La Roche Inc., priority 2017, dated 2022).
